Data from article PMC7109127 (British Journal of Cancer, 2020).
Like-named read-outs stand apart in the source and are kept apart here.

Columns and labels:
[1] = cited from earlier work; for mean AUC0–24 / median tmax: all solid tumours, 1 mg
[2] = phase 1b/2 study, safety, DLT and MTD/RP2D (CTCAE v4.0)
Protocol: The RP2D was defined as the MTD.
(§1) The treatment schedule was modified as there was concern on tolerability of longer dosing in patients with underlying cirrhosis. […] Study treatment was continued until disease progression or unacceptable toxicity.
(§2) Safety assessments were done at baseline, on cycle 1 days 1 and 15, and on day 1 of each cycle thereafter. Tumour assessments were performed by computed tomography or magnetic resonance imaging at baseline and every 8 weeks thereafter. Confirmatory imaging was performed within 6 weeks in patients with complete response or partial response. AEs were assessed using the National Cancer Institute Common Terminology Criteria for Adverse Events (CTCAE) v4.0. Blood sample collection for pharmacokinetic (PK) and pharmacodynamic (PD) analysis was performed on cycle 1 days 1 and 15 pre-dose as well as 2 and 4 h post dose.

[3] = cited from earlier work
PDGFRβ = experiment: in vitro inhibition of PDGFRβ phosphorylation
sVEGFR-2 = experiment: phase 1b/2 study, pharmacodynamics: plasma sVEGFR-2 by ELISA; format: in vivo, Human; settings: for sVEGFR-2, median percent decrease from baseline: day 15
Protocol: For sVEGFR-2, plasma EDTA samples (220 μL) were analysed in duplicate using a commercially available enzyme-linked immunosorbent assay (Quantikine® ELISA Human VEGFR-2/KDR immunoassay, R&D Systems® Inc., Minneapolis, MN) that was validated according to the FDA guidance. A Tomtec Quadra 4 (Tomtec Inc., Hamden, CT) liquid handling robot was used to transfer all solutions to the 96-well plate to eliminate time-dependent variability associated with manual pipetting. After the addition of the Stop Solution in the final step, the absorbance of each well was measured at 450 and 540 nm on a Synergy HT plate reader (BioTek Instruments, Winooski, VT). The readings at 540 nm were subtracted from the absorbance readings at 450 nm to correct for any optical imperfections in the 96-well plate. Sample concentrations were back-calculated against calibration curves (80.0–5000 pg/mL) that were generated based on a 4-parameter fit of absorbance vs. nominal concentrations (pg/mL) using the Gen 5 software (BioTek Instruments).

CYP3A4 = settings: background statement; cited from earlier work
[4] = in vivo
Protocol: The RP2D was defined as the MTD.
as §1, §2

[5] = all solid tumours, 1 mg dose level

COc1cc2nccc(Oc3ccc(NC(=O)Nc4cc(C)on4)c(Cl)c3)c2cc1OC [tivozanib]
mean AUC0–24 ([1]; multiple doses): 856 ng·h/mL
median tmax ([1]; multiple doses): 4.01 h
mean AUC0–24 ([1]; single dose): 131.2 ng·h/mL
median tmax ([1]; single dose): 6.01 h
half-life [1]: 88.8 to 113 h
deaths due to toxicity ([2]; 27 patients): No deaths due to toxicity
MTD/RP2D ([2]; per os once daily, 21 days on–7 days off, advanced HCC): 1 mg
viral loads ([2]; two HBV-positive and three HCV-positive patients): remained stable
Dry skin, any grade [3, 5]: 28%
Fatigue, any grade [3, 5]: 55%
Fatigue, grade 3–4 [3, 5]: 6%
Hypertension, any grade [3, 5]: 39%
Hypertension, grade 3–4 [3, 5]: 28%
Palmar–plantar erythrodysesthesia, any grade [3, 5]: 22%
maximum-tolerated dose (MTD) and RP2D ([3]; once daily, 4 weeks on–2 weeks off, advanced refractory solid malignancies): 1.5 mg
activity against PDGFRβ, times higher compared to lenvatinib (PDGFRβ): 197 times
activity against PDGFRβ, times higher compared to sorafenib (PDGFRβ): 46 times
sVEGFR-2, median pre-dose level (sVEGFR-2; cycle 1 day 1): 8.64 µg/L
sVEGFR-2, median pre-dose level (sVEGFR-2; cycle 1 day 15): 5.37 µg/L
sVEGFR-2, median percent decrease from baseline (sVEGFR-2; PFS responders): 32.4%
sVEGFR-2, median percent decrease from baseline (sVEGFR-2; PR by RECIST 1.1): 30.9%
sVEGFR-2, median percent decrease from baseline (sVEGFR-2; SD by RECIST 1.1): 40.5%
sVEGFR-2, median percent decrease from baseline (sVEGFR-2; all patients): 31.1%
sVEGFR-2, median percent decrease from baseline (sVEGFR-2; not PFS responders): 30.1%
sVEGFR-2, median percent decrease from baseline (sVEGFR-2; progressive disease (PD) by RECIST 1.1): 27.4%
interaction with CYP3A4 inhibitors (CYP3A4): no interaction
Decreased appetite, grade 3 and 4 ([4]; human): 3.7%
Diarrhoea, grade 3–4 ([4]; human): 0%
Dysphonia, grade 3 and 4 ([4]; human): 0%
Fatigue, grade 3–4 ([4]; human): 26%
Hypertension, grade 3 and 4 ([4]; human): 11%
Increased bilirubin, grade 3 and 4 ([4]; human): 7.4%
Nausea, grade 3 and 4 ([4]; human): 0%
PPEDS (palmar–plantar erythrodysesthesia syndrome), Total ([4]; human): 11%
PPEDS, Total ([4]; human): 3 n
Palmar–plantar erythrodysesthesia, grade 3 and 4 ([4]; human): 3.7%
Stomatitis, grade 3 and 4 ([4]; human): 0%
Vomiting, grade 3 and 4 ([4]; human): 0%
dose reductions for toxicity [4]: six
permanently discontinued from study treatment for toxicity [4]: four
tolerability [4]: well tolerated
